# Source: ChEMBL document CHEMBL3880427, “P70 S6 kinase inhibitors” (2012)
# Assays:
# Assay type in all cases: functional, HCT-116
# [1] = Antitumor activity against human HCT116 cells xenografted in athymic nude mouse assessed as tumor volume at 30 mg/kg, po bid administered for 21 days measured on day 13 post last dose (reference value: 100.9 +/- 13.7 mm'3)
# [2] = Antitumor activity against human HCT116 cells xenografted in athymic nude mouse assessed as tumor volume at 30 mg/kg, po bid administered for 21 days measured on day 16 post last dose (reference value: 163.1 +/- 25.7 mm'3)
# [3] = Antitumor activity against human HCT116 cells xenografted in athymic nude mouse assessed as tumor volume at 60 mg/kg, po bid administered for 21 days measured on day 16 post last dose (reference value: 163.1 +/- 25.7 mm'3)
# [4] = Antitumor activity against human HCT116 cells xenografted in athymic nude mouse assessed as tumor volume at 60 mg/kg, po bid administered for 21 days measured on day 8 post last dose (reference value: 38.5 +/- 4.1 mm'3)
# [5] = Antitumor activity against human HCT116 cells xenografted in athymic nude mouse assessed as tumor volume at 60 mg/kg, po qd administered for 21 days measured on day 23 post last dose (reference value: 402.2 +/- 43.1 mm'3)
# [6] = Antitumor activity against human HCT116 cells xenografted in athymic nude mouse assessed as tumor volume at 60 mg/kg, po bid administered for 21 days measured on day 20 post last dose (reference value: 287.1 +/- 31.9 mm'3)
# [7] = Antitumor activity against human HCT116 cells xenografted in athymic nude mouse assessed as tumor volume at 60 mg/kg, po bid administered for 21 days measured on day 23 post last dose (reference value: 402.2 +/- 43.1 mm'3)
# [8] = Antitumor activity against human HCT116 cells xenografted in athymic nude mouse assessed as tumor volume at 30 mg/kg, po bid administered for 21 days measured on day 20 post last dose (reference value: 287.1 +/- 31.9 mm'3)
# [9] = Antitumor activity against human HCT116 cells xenografted in athymic nude mouse assessed as tumor volume at 30 mg/kg, po bid administered for 21 days measured on day 8 post last dose (reference value: 38.5 +/- 4.1 mm'3)
# [10] = Antitumor activity against human HCT116 cells xenografted in athymic nude mouse assessed as tumor volume at 60 mg/kg, po qd administered for 21 days measured on day 13 post last dose (reference value: 100.9 +/- 13.7 mm'3)
# [11] = Antitumor activity against human HCT116 cells xenografted in athymic nude mouse assessed as tumor volume at 60 mg/kg, po bid administered for 21 days measured on day 13 post last dose (reference value: 100.9 +/- 13.7 mm'3)
# [12] = Antitumor activity against human HCT116 cells xenografted in athymic nude mouse assessed as tumor volume at 60 mg/kg, po qd administered for 21 days measured on day 16 post last dose (reference value: 163.1 +/- 25.7 mm'3)
# [13] = Antitumor activity against human HCT116 cells xenografted in athymic nude mouse assessed as tumor volume at 60 mg/kg, po qd administered for 21 days measured on day 20 post last dose (reference value: 287.1 +/- 31.9 mm'3)
# [14] = Antitumor activity against human HCT116 cells xenografted in athymic nude mouse assessed as tumor volume at 30 mg/kg, po bid administered for 21 days measured on day 23 post last dose (reference value: 402.2 +/- 43.1 mm'3)
# [15] = Antitumor activity against human HCT116 cells xenografted in athymic nude mouse assessed as tumor volume at 60 mg/kg, po bid administered for 21 days measured on day 27 post last dose (Rvb= 545 +/- 41.1 mm'3)
# [16] = Antitumor activity against human HCT116 cells xenografted in athymic nude mouse assessed as tumor volume at 60 mg/kg, po qd administered for 21 days measured on day 27 post last dose (Rvb= 545 +/- 41.1 mm'3)
# [17] = Antitumor activity against human HCT116 cells xenografted in athymic nude mouse assessed as tumor volume at 30 mg/kg, po bid administered for 21 days measured on day 27 post last dose (Rvb= 545 +/- 41.1 mm'3)
# [18] = Antitumor activity against human HCT116 cells xenografted in athymic nude mouse assessed as tumor volume at 60 mg/kg, po qd administered for 21 days measured on day 8 post last dose (reference value: 38.5 +/- 4.1 mm'3)
smiles,measurement,setting,value
Cl.FC(F)(F)c1cccc(-c2c[nH]c(C3CCN(c4ncnc5[nH]ncc45)CC3)n2)c1,Activity,[1],58.7 mm3
same,Activity,[2],90.9 mm3
same,Activity,[3],72.1 mm3
same,Activity,[4],28.8 mm3
same,Activity,[5],194.5 mm3
same,Activity,[6],139 mm3
same,Activity,[7],188.4 mm3
same,Activity,[8],134.6 mm3
same,Activity,[9],36.5 mm3
same,Activity,[10],57.8 mm3
same,Activity,[11],42.1 mm3
same,Activity,[12],85 mm3
same,Activity,[13],142.5 mm3
same,Activity,[14],192.7 mm3
same,Activity,[15],280 mm3
same,Activity,[16],252.7 mm3
same,Activity,[17],296.3 mm3
same,Activity,[18],30.6 mm3
